# Structures can show the parent of a compound that is named as a salt. Where two headings read alike, the source gives them in different places.
# Assays:
# Type in all cases: biochemical
# mMASP-2 = mMASP-2 (Mus musculus (Mouse), UniProt Q91WP0); assay: Enzymatic inhibition of mMASP-2; conditions: read-out: mMASP-2 Ki
# human α-thrombin = human α-thrombin (Homo sapiens (Human), UniProt P00734); assay: Enzymatic assay for thrombin (Boc-VPR-AMC substrate)
# MASP-2 (CCP1-CCP2-SP) = MASP-2 (CCP1-CCP2-SP) (Homo sapiens (Human), UniProt O00187); assay: biochemical; conditions: for MASP-2 vs. thrombin selectivity: selectivity for MASP-2 inhibition versus thrombin
# Sequence of MASP-2 (CCP1-CCP2-SP) (O00187 445-686): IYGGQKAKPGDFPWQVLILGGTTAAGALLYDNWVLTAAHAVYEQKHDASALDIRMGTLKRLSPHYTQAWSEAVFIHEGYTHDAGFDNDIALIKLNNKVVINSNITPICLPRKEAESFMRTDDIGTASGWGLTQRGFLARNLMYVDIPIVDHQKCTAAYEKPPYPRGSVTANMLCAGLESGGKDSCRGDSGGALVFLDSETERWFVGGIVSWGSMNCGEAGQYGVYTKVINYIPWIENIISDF
# Sequence of mMASP-2 (Q91WP0 20-685): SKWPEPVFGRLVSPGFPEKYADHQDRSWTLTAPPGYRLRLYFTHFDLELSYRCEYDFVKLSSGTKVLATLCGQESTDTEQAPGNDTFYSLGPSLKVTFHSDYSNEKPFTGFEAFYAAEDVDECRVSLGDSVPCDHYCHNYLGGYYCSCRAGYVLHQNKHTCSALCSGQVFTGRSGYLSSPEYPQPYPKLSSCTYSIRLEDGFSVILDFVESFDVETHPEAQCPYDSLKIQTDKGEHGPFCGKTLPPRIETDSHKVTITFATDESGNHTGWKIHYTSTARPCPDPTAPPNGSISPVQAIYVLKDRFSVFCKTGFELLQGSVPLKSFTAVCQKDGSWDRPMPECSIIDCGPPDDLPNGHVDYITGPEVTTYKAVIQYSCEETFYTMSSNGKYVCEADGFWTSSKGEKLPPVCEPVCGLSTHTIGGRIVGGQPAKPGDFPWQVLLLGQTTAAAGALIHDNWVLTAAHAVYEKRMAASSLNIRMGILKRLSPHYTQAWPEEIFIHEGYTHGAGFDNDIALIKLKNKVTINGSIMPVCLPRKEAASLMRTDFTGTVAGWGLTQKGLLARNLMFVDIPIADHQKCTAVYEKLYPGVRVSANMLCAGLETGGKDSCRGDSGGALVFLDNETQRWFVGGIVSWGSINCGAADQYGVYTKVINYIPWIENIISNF
Compound,Ki (mMASP-2) [µM],Ki (human α-thrombin; read-out: Thrombin Ki) [µM],Ki (MASP-2 (CCP1-CCP2-SP); read-out: MASP-2 Ki) [µM],MASP-2 vs. thrombin selectivity (MASP-2 (CCP1-CCP2-SP)),Ki (human α-thrombin; Thrombin Ki (μM)) [µM],Ki (MASP-2 (CCP1-CCP2-SP)) [µM]
"Cc1nc(N)ccc1CNC(=O)[C@H](C)NC(=O)[C@H]1C[C@H](Cc2ccc(N3CCCC3=O)cc2)CN1 [compound 1391, (2R,4S)—N—((S)-1-(((6-Amino-2-methylpyridin-3-yl)methyl)amino)-1-oxopropan-2-yl)-4-(4-(2-oxopyrrolidin-1-yl)benzyl)pyrrolidine-2-carboxamide Di-trifluoroacetate salt]",< 0.5,> 25,< 0.5,**** (≥100-fold),–,–
"C[C@H](NC(=O)[C@H]1C[C@H](Cc2ccccc2-c2ccccc2)CN1)C(=O)NCc1cnc2[nH]cc(Cl)c2c1 [compound 1393, (2R,4S)-4-([1,1′-Biphenyl]-2-ylmethyl)-N-((S)-1-(((3-chloro-1H-pyrrolo[2,3-b]pyridin-5-yl)methyl)amino)-1-oxopropan-2-yl)pyrrolidine-2-carboxamide Di-trifluoroacetate salt]",< 0.5,< 0.5,< 0.5,* (≥1.0 to <5.0-fold),–,–
"C[C@H](NC(=O)[C@H]1C[C@H](c2ccccc2)CN1)C(=O)NCc1cc(Cl)ccc1-n1ncnn1 [compound 1394, (2R,4R)—N—((S)-1-((5-chloro-2-(2H-tetrazol-2-yl)benzyl)amino)-1-oxopropan-2-yl)-4-phenylpyrrolidine-2-carboxamide Trifluoroacetate]",> 25,–,–,* (≥1.0 to <5.0-fold),10 to 25,2.5 to 10
"C[C@H](NC(=O)[C@H]1C[C@H](c2ccccc2)CN1)C(=O)NCc1cc(Cl)cc(Cl)c1O [compound 1395, (2R,4R)—N—((S)-1-((3,5-dichloro-2-hydroxybenzyl)amino)-1-oxopropan-2-yl)-4-phenylpyrrolidine-2-carboxamide Trifluoroacetate]",2.5 to 10,> 25,–,–,–,0.5 to 2.5
"Cc1nc(N)ccc1CNC(=O)[C@H](C)NC(=O)[C@H]1C[C@@H](c2ccccc2)CCN1CC(=O)O [compound 1398, 2-((2R,4S)-2-(((S)-1-(((6-Amino-2-methylpyridin-3-yl)methyl)amino)-1-oxopropan-2-yl)carbamoyl)-4-phenylpiperidin-1-yl)acetic acid Trifluoroacetate salt]",0.5 to 2.5,> 25,< 0.5,–,–,–
"Cc1nc(N)ccc1CNC(=O)[C@H](C)NC(=O)[C@H]1C[C@H](Cc2cc(-c3ccccc3)cs2)CN1 [compound 1399, (2R,4R)—N—((S)-1-(((6-Amino-2-methylpyridin-3-yl)methyl)amino)-1-oxopropan-2-yl)-4-((4-phenylthiophen-2-yl)methyl)pyrrolidine-2-carboxamide Dihydrochloride]",< 0.5,–,< 0.5,**** (≥100-fold),10 to 25,–
"Cc1cc(Cl)cc(CNC(=O)[C@H](C)NC(=O)[C@H]2C[C@H](Cc3ccccc3-c3ccccc3)CN2)c1O [compound 1401, (2R,4S)-4-([1,1′-Biphenyl]-2-ylmethyl)-N-((S)-1-((5-chloro-2-hydroxy-3-methylbenzyl)amino)-1-oxopropan-2-yl)pyrrolidine-2-carboxamide Hydrochloride]",0.5 to 2.5,> 25,< 0.5,–,–,–
"C[C@H](NC(=O)[C@H]1C[C@H](Cc2ccccc2-c2ccccc2)CN1)C(=O)NCc1cc(Cl)ccc1-n1cnnn1 [compound 1402, (2R,4S)-4-([1,1′-Biphenyl]-2-ylmethyl)-N-((S)-1-((5-chloro-2-(1H-tetrazol-1-yl)benzyl)amino)-1-oxopropan-2-yl)pyrrolidine-2-carboxamide Trifluoroacetate]",0.5 to 2.5,< 0.5,< 0.5,* (≥1.0 to <5.0-fold),–,–
"Cc1nc(N)ccc1CNC(=O)[C@H](C)NC(=O)[C@H]1C[C@H](Cc2ccc(-c3ccc(F)cc3CN)cc2)CN1 [compound 1403, (2R,4S)—N—((S)-1-(((6-Amino-2-methylpyridin-3-yl)methyl)amino)-1-oxopropan-2-yl)-4-((2′-(aminomethyl)-4′-fluoro-[1,1′-biphenyl]-4-yl)methyl)pyrrolidine-2-carboxamide]",0.5 to 2.5,> 25,< 0.5,–,–,–
"C[C@H](NC(=O)[C@H]1C[C@H](Cc2ccc(-c3cccnc3)cc2)CN1)C(=O)NCc1cc(Cl)ccc1-n1cnnn1 [compound 1404, (2R,4S)—N—((S)-1-((5-Chloro-2-(1H-tetrazol-1-yl)benzyl)amino)-1-oxopropan-2-yl)-4-(4-(pyridin-3-yl)benzyl)pyrrolidine-2-carboxamide Hydrochloride]",< 0.5,< 0.5,< 0.5,** (≥5.0 to <25-fold),–,–
"C[C@H](NC(=O)[C@H]1C[C@H](Cc2ccc(-c3ccc(F)cc3C(N)=O)cc2)CN1)C(=O)NCc1cc(Cl)ccc1-n1cnnn1 [compound 1405, (2R,4S)-4-((2′-Carbamoyl-4′-fluoro-[1,1′-biphenyl]-4-yl)methyl)-N-((S)-1-((5-chloro-2-(1H-tetrazol-1-yl)benzyl)amino)-1-oxopropan-2-yl)pyrrolidine-2-carboxamide Hydrochloride]",0.5 to 2.5,–,< 0.5,** (≥5.0 to <25-fold),0.5 to 2.5,–
"Cc1nc(N)ccc1CNC(=O)[C@H](C)NC(=O)[C@H]1C[C@H](Cc2cccc(-c3ccccc3)c2)CN1 [compound 1406, (2R,4S)-4-([1,1′-Biphenyl]-3-ylmethyl)-N-((S)-1-(((6-amino-2-methylpyridin-3-yl)methyl)amino)-1-oxopropan-2-yl)pyrrolidine-2-carboxamide Dihydrochloric acid]",< 0.5,–,< 0.5,**** (≥100-fold),2.5 to 10,–
"Cc1cc(Cl)cc(CNC(=O)[C@H](C)NC(=O)[C@H]2C[C@H](Cc3ccccc3-c3ccc(Cl)s3)CN2)c1O [compound 1408, (2R,4S)—N—((S)-1-((5-Chloro-2-hydroxy-3-methylbenzyl)amino)-1-oxopropan-2-yl)-4-(2-(5-chlorothiophen-2-yl)benzyl)pyrrolidine-2-carboxamide Hydrochloride]",2.5 to 10,–,< 0.5,** (≥5.0 to <25-fold),2.5 to 10,–
"C[C@H](NC(=O)[C@H]1C[C@H](Cc2ccccc2-c2ccc(Cl)s2)CN1)C(=O)NCc1cc(Cl)ccc1-n1cnnn1 [compound 1409, (2R,4S)—N—((S)-1-((5-Chloro-2-(1H-tetrazol-1-yl)benzyl)amino)-1-oxopropan-2-yl)-4-(2-(5-chlorothiophen-2-yl)benzyl)pyrrolidine-2-carboxamide Trifluoroacetate]",2.5 to 10,< 0.5,< 0.5,* (≥1.0 to <5.0-fold),–,–
"Cc1nc(N)ccc1CNC(=O)[C@H](C)NC(=O)[C@H]1C[C@H](Cc2ccccc2-c2ccc(Cl)s2)CN1 [compound 1410, (2R,4S)—N—((S)-1-(((6-Amino-2-methylpyridin-3-yl)methyl)amino)-1-oxopropan-2-yl)-4-(2-(5-chlorothiophen-2-yl)benzyl)pyrrolidine-2-carboxamide Trifluoroacetate]",0.5 to 2.5,–,< 0.5,*** (≥25 to <100-fold),0.5 to 2.5,–
"Cc1nc(N)ccc1CNC(=O)[C@H](C)NC(=O)[C@H]1C[C@@H](c2ccccc2)CCN1CCC(=O)O [compound 1411, 3-((2R,4S)-2-(((S)-1-(((6-Amino-2-methylpyridin-3-yl)methyl)amino)-1-oxopropan-2-yl)carbamoyl)-4-phenylpiperidin-1-yl)propanoic acid Trifluoroacetate salt]",< 0.5,> 25,< 0.5,–,–,–
"Cc1nc(N)ccc1CNC(=O)[C@H](C)NC(=O)[C@H]1C[C@@H](c2ccccc2)CCN1CCCCCC(=O)O [compound 1412, 6-((2R,4S)-2-(((S)-1-(((6-Amino-2-methylpyridin-3-yl)methyl)amino)-1-oxopropan-2-yl)carbamoyl)-4-phenylpiperidin-1-yl)hexanoic acid Trifluoroacetate salt]",2.5 to 10,> 25,< 0.5,–,–,–
"CC[C@H]1N[C@@H](C(=O)N[C@@H](C)C(=O)NCc2ccc(N)nc2C)C[C@@H]1Cc1ccccc1 [compound 1413, (2R,4S,5R)—N—((S)-1-(((6-Amino-2-methylpyridin-3-yl)methyl)amino)-1-oxopropan-2-yl)-4-benzyl-5-ethylpyrrolidine-2-carboxamide Di-trifluoroacetate salt]",2.5 to 10,> 25,–,*** (≥25 to <100-fold),–,0.5 to 2.5
"C[C@H](NC(=O)[C@H]1C[C@H](c2ccccc2)CN1)C(=O)NCc1cc(Cl)c2[nH]cnc2c1 [compound 1417, (2R,4R)—N—((S)-1-(((7-Chloro-1H-benzo[d]imidazol-5-yl)methyl)amino)-1-oxopropan-2-yl)-4-phenylpyrrolidine-2-carboxamide Trifluoroacetate salt]",2.5 to 10,> 25,–,–,–,0.5 to 2.5
"Cc1nc2cc(CNC(=O)[C@H](C)NC(=O)[C@H]3C[C@H](c4ccccc4)CN3)cc(Cl)c2[nH]1 [compound 1418, (2R,4R)—N—((S)-1-(((7-Chloro-2-methyl-1H-benzo[d]imidazol-5-yl)methyl)amino)-1-oxopropan-2-yl)-4-phenylpyrrolidine-2-carboxamide Trifluoroacetate salt]",10 to 25,> 25,–,–,–,2.5 to 10
"Cc1nc(N)ccc1CNC(=O)[C@H](C)NC(=O)[C@H]1C[C@H](Cc2cccc(C(=O)N3CCC3)c2)CN1 [compound 1420, (2R,4S)—N—((S)-1-(((6-Amino-2-methylpyridin-3-yl)methyl)amino)-1-oxopropan-2-yl)-4-(3-(azetidine-1-carbonyl)benzyl)pyrrolidine-2-carboxamide Di-trifluoroacetate salt]",< 0.5,–,< 0.5,**** (≥100-fold),2.5 to 10,–

# Source: patent US11584714B2 (priority 2018, dated 2023)
